Laboratory results reported in patent publication US6503935B1, “Imidazoles and related compounds as α1A agonists” (Abbott Laboratories, priority 1998, dated 2003).
Structures can show the parent of a compound that is named as a salt. Where two headings read alike, the source gives them in different places.

Columns and labels:
[1] = molecular target: T1, α1A (rat submaxillary gland) (Rattus norvegicus, UniProt P43140); experiment: Radioligand binding with [3H]-prazosin, α1A
T1 construct: α1A (rat submaxillary gland); from tissue; host or cells: rat submaxillary gland
T1 sequence (P43140 1-466): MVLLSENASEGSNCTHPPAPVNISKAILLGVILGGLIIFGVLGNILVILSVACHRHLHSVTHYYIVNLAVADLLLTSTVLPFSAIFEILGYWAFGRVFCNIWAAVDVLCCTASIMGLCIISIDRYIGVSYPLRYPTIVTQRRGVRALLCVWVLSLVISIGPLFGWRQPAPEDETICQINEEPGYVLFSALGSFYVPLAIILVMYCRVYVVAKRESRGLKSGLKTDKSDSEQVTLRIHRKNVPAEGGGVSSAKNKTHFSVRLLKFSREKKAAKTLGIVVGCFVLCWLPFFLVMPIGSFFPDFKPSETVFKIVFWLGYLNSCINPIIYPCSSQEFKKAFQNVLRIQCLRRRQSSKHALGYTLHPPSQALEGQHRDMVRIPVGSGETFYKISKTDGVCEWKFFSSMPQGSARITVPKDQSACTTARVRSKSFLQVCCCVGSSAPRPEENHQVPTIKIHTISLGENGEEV
Experimental: (§1) For purposes of discussing α1 adrenoceptor subtypes, the IUPHAR convention of using lower case letters to define molecular clones and upper case letters to indicate pharmacologically defined adrenoceptors has been followed. Compounds of formula I were evaluated in radioligand binding assays specific for α1A (rat submaxillary gland), α1b (hamster receptor expressed in mouse fibroblasts) and α1d (rat receptor expressed in mouse fibroblasts) using [^3H]-prazosin as the radioligand as described in Knepper, et al. J. Pharm.

[2] = molecular target: T2, α1b (hamster receptor expressed in mouse fibroblasts) (Mesocricetus auratus, UniProt P18841); experiment: Radioligand binding with [3H]-prazosin, α1b
T2 construct: expressed in transfected cells; host or cells: mouse fibroblasts
T2 sequence (P18841 1-515): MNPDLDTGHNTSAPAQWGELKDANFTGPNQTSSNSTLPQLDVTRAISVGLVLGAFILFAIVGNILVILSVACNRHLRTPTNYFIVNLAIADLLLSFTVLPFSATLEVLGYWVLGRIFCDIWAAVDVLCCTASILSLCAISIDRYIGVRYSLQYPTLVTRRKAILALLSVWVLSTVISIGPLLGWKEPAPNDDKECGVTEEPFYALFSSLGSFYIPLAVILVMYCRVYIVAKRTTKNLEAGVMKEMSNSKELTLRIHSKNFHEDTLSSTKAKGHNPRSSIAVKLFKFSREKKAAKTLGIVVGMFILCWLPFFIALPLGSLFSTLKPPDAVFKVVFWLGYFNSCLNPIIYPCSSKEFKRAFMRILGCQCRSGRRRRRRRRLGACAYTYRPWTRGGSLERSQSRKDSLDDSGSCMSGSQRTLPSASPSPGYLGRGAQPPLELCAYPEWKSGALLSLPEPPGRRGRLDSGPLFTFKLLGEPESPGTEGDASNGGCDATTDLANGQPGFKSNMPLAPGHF
Experimental: as §1

[3] = molecular target: T3, α1d (rat receptor expressed in mouse fibroblasts) (Rattus norvegicus, UniProt P23944); experiment: Radioligand binding with [3H]-prazosin, α1d
T3 construct: expressed in transfected cells; host or cells: mouse fibroblasts
T3 sequence (P23944 1-561): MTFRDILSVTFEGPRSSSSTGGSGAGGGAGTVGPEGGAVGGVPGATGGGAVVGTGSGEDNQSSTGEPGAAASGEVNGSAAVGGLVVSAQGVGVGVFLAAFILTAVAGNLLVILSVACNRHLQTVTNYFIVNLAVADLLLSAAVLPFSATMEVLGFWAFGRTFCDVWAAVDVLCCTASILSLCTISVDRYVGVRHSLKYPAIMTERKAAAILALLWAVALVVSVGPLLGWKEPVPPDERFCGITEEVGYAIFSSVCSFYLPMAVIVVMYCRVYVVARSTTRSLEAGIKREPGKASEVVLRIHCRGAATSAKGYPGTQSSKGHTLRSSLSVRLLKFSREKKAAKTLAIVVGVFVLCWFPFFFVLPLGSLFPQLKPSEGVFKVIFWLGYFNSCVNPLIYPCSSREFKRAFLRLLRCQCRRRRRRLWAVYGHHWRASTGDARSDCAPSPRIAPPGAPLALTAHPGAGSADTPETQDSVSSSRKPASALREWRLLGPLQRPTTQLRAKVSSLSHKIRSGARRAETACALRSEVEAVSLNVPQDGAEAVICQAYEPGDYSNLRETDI
Experimental: as §1

[4] = molecular target: T4, α1A (rabbit urethra) (Oryctolagus cuniculus, UniProt O02824); experiment: Agonist contraction of smooth muscle tissue, rabbit urethra; format: cell-based; conditions: for EC50: read-out: Agonist Tissue Response (pD2) α1A (rab ureth) (converted)
T4 construct: tested for α1A functional activity using rabbit urethra; from tissue; host or cells: rabbit urethra
T4 sequence (O02824 1-466): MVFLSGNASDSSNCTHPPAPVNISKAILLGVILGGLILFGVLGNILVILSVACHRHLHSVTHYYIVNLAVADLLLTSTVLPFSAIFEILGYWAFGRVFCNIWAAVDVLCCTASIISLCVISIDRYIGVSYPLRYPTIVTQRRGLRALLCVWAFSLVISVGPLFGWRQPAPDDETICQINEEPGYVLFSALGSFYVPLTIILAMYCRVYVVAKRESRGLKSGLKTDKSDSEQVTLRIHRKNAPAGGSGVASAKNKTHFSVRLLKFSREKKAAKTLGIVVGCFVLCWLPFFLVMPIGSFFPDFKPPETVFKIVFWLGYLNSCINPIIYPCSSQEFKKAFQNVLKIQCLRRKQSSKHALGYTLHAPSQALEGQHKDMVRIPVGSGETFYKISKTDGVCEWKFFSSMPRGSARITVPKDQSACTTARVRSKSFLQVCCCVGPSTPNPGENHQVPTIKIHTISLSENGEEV
Experimental: Most of the compounds were tested for α1A functional activity using rabbit urethra as follows. Female New Zealand white rabbits (2.0-3.5 Kg) were sedated with CO2 and decapitated. […] Subsequent experimental conditions were as described above for the other tissues. Agonist concentration response curves were cumulative except for the vas deferens assay in which the transient response made such measurements impractical.

[5] = molecular target: T5, α1B (rat spleen) (Rattus norvegicus, UniProt P15823); experiment: Agonist contraction of smooth muscle tissue, rat spleen; format: cell-based; conditions: for EC50: read-out: Agonist Tissue Response (pD2) α1B (rat spleen) (converted)
T5 construct: α1B (rat spleen) and α1D (rat aorta) receptors; from tissue; host or cells: rat spleen
T5 sequence (P15823 1-515): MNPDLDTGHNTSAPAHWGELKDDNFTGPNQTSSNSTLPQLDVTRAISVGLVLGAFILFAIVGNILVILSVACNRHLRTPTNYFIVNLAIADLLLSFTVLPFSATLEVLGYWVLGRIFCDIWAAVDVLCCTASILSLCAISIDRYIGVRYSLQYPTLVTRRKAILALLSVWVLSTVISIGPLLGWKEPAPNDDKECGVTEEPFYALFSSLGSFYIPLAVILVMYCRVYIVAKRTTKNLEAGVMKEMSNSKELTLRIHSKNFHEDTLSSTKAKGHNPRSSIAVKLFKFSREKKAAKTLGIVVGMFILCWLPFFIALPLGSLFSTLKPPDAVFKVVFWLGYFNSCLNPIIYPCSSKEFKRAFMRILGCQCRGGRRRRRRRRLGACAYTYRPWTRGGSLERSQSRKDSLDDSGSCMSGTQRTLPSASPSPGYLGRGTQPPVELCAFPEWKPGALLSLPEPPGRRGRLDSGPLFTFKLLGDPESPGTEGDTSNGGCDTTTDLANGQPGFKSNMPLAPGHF

[6] = molecular target: T6, α1D (rat aorta) (Rattus norvegicus, UniProt P23944); experiment: Agonist contraction of smooth muscle tissue, rat aorta; format: cell-based; conditions: for EC50: read-out: Agonist Tissue Response (pD2) α1D (rat aorta) (converted)
T6 construct: α1B (rat spleen) and α1D (rat aorta) receptors; from tissue; host or cells: rat aorta strips, endothelium removed
T6 sequence (P23944 1-561): T3 sequence (P23944 1-561)

[7] = rat submaxillary gland, [3H]-prazosin
[8] = hamster receptor expressed in mouse fibroblasts, [3H]-prazosin, read-out: Radioligand Binding Ki α1b (Hamster)
[9] = rat receptor expressed in mouse fibroblasts, [3H]-prazosin, read-out: Radioligand Binding Ki α1d (Rat)
[10] = Radioligand Binding Ki α1d (Rat), rat receptor expressed in mouse fibroblasts, [3H]-prazosin

Row | Compound | Ki [1, 7] [µM] | Ki [2, 8] [µM] | Ki [3, 9] [µM] | Ki [2] [µM] | Ki [3, 10] [µM] | EC50 ([4]; rabbit urethra) [µM] | also measured
1 | 5-Chloro-N-[5-(1H-imidazol-5-yl)-5,6,7,8-tetrahydro-1-naphthalenyl]-3-methyl-2,3-dihydro-1-benzothiophene-2-sulfonamide [Example 77] | 0.65 | 0.32 | 0.111 | – | – | – | –
2 | Cn1cnc(C2CCCc3c2ccc(O)c3NS(C)(=O)=O)c1 (stereo not shown) [Example 5, N-[2-hydroxy-5-(1-methyl-1H-imidazol-4-yl)-5,6,7,8-tetrahydro-1-naphthalenyl]methanesulfonamide, hydrochloride] | – | – | – | – | – | – | Ki [1]: 0.136 µM; Ki ([2]; read-out: Radioligand Binding Ki α1b (Hamster)): 6.14 µM; Ki ([3]; read-out: Radioligand Binding Ki α1d (Rat)): 1.55 µM; EC50 [4]: 0.513 µM; EC50 [5]: 9.33 µM; EC50 [6]: 3.31 µM
3 | CS(=O)(=O)Nc1cc(Cc2c[nH]cn2)ccc1O [Example 11, N-[2-hydroxy-5-(1H-imidazol-4-ylmethyl)phenyl]methanesulfonamide, hydrochloride] | 0.0822 | – | – | 1.4 | 0.311 | 0.148 | EC50 ([5]; rat spleen): 1.2 µM; EC50 ([6]; rat aorta, endothelium removed): 0.692 µM
4 | CCS(=O)(=O)Nc1cccc(C(C)c2c[nH]cn2)c1 (stereo not shown) [Example 37, N-{3-[1-(1H-imidazol-4-yl)ethyl]phenyl}ethanesulfonamide, maleate] | 0.772 | – | – | 2.28 | 0.452 | 5.37 | –
5 | CS(=O)(=O)Nc1ccc(F)c(Cc2c[nH]cn2)c1 [Example 41, N-[4-fluoro-3-(1H-imidazol-4-ylmethyl)phenyl]methanesulfonamide, maleate] | 0.752 | – | – | 1.63 | 0.348 | 13.5 | –
6 | CCS(=O)(=O)Nc1cccc(C(=C2CCCCC2)c2c[nH]cn2)c1 [Example 56] | 0.229 | – | – | 0.0151 | 0.00198 | 16.2 | EC50 ([6]; rat aorta, endothelium removed): > 1000 µM
7 | O=S(=O)(CCCCl)Nc1cccc2c1CCCC2c1cnc[nH]1 (stereo not shown) [Example 65, 3-Chloro-N-[5-(1H-imidazol-5-yl)-5,6,7,8-tetrahydro-1-naphthalenyl]-1-propanesulfonamide] | 1.16 | 4.4 | 5.3 | – | – | – | –
8 | Cn1cnc(S(=O)(=O)Nc2cccc3c2CCCC3c2cnc[nH]2)c1 (stereo not shown) [Example 66, N-[5-(1H-imidazol-5-yl)-5,6,7,8-tetrahydro-1-naphthalenyl]-1-methyl-1H-imidazole-4-sulfonamide] | 0.366 | 1.13 | 0.458 | – | – | – | –
9 | COc1ccc(S(=O)(=O)Nc2cccc3c2CCCC3c2cnc[nH]2)cc1 (stereo not shown) [Example 71, N-[5-(1H-imidazol-5-yl)-5,6,7,8-tetrahydro-1-naphthalenyl]-4-methoxybenzenesulfonamide] | 1.54 | 1.05 | 2.29 | – | – | – | –
10 | O=S(=O)(Nc1cccc2c1CCCC2c1cnc[nH]1)c1cccc2cccnc12 (stereo not shown) [Example 73, N-[5-(1H-imidazol-5-yl)-5,6,7,8-tetrahydro-1-naphthalenyl]-8-quinolinesulfonamide] | 1.02 | 1.19 | 2.23 | – | – | 17.8 | –
11 | N-[5,6,7,8-tetrahydro-5-(1H-imidazol-4-yl)-1-naphthalenyl]-2-methylethanesulfonamide, maleate [Example 18] | 1.14 | – | 2.05 | – | – | – | Agonist Tissue Response (pD2) α1A (rab ureth) ([4]; rabbit urethra): 5.17; Agonist Tissue Response (pD2) α1B (rat spleen) ([5]; rat spleen): 4.85; Agonist Tissue Response (pD2) α1D (rat aorta) ([6]; rat aorta, endothelium removed): 4.96
